These results are taken from PMC8397291 (2021).

As usually defined, the Kd is a measure of binding affinity in units of concentration. High values mean a looser complex, low ones a tighter complex.

The test system of experiment [1] is c-MYC Pu22 (DNA, G4) TGAGGGTGGGTAGGGTGGGTAA
Description: fluorescence displacement of 2a. The following applies: tracer 2a displaced.

Experiment [2] concerns Tel-22 (DNA, G4) AGGGTTAGGGTTAGGGTTAGGG
Put plainly: UV-vis and fluorescence titration. As to conditions: 100 mM KCl; 50 mM Tris pH 7.5, 25 °C; 1.5-3.0 μM compound, up to 5.0 eq. DNA.

Experiment [3] has as its system TBA (DNA, G4) GGTTGGTGTGGTTGG
Description: UV-vis and fluorescence titration. As to conditions: 100 mM KCl; 50 mM Tris pH 7.5, 25 °C; 1.5-3.0 μM compound, up to 5.0 eq. DNA.

Experiment [4] relates to c-MYC Pu22 (DNA, G4) TGAGGGTGGGTAGGGTGGGTAA
Description: UV-vis and fluorescence titration. As to conditions: 100 mM KCl; 50 mM Tris pH 7.5, 25 °C; 1.5-3.0 μM compound, up to 5.0 eq. DNA.

Experiment [5] has as its system VAV-1 (DNA, G4) GGGCAGGGAGGGAACTGGG
Put plainly: fluorescence titration, 1:1 global fit (Bindfit). As to conditions: 100 mM KCl; 50 mM Tris pH 7.5, 25 °C, 0.6% DMSO; 1.5 μM compound.

Experiment [6] concerns c-MYC sG4 (DNA, G4) GGGTGGGTAGGGTGGG
Put plainly: fluorescence titration, 1:1 global fit (Bindfit). The following applies: 100 mM KCl; 50 mM Tris pH 7.5, 25 °C, 0.6% DMSO; 1.5 μM compound.

The subject of experiment [7] is Tel-22 (DNA, G4) AGGGTTAGGGTTAGGGTTAGGG
Description: fluorescence titration, 1:1 global fit (Bindfit). As to conditions: 100 mM KCl; 50 mM Tris pH 7.5, 25 °C, 0.6% DMSO; 1.5 μM compound.

Experiment [8] has as its system c-MYC Pu22 (DNA, G4) TGAGGGTGGGTAGGGTGGGTAA
Description: fluorescence titration, 1:1 global fit (Bindfit). As to conditions: 100 mM KCl; 50 mM Tris pH 7.5, 25 °C, 0.6% DMSO; 1.5 μM compound.

For experiment [9], the system named is c-MYC Pu24T (DNA, G4) TGAGGGTGGTGAGGGTGGGGAAGG
Description: 1D 1H NMR titration, imino shifts. As to conditions: 10 mM potassium phosphate, 35 mM KCl; pH 7.4, 298 K; 90 μM DNA, up to 5 eq. 2a.

Experiment [10] has as its system BCL-2 (DNA, G4) GGGCGCGGGAGGGAATTGGCGGGG
Description: fluorescence titration, 1:1 global fit (Bindfit). As to conditions: 100 mM KCl; 50 mM Tris pH 7.5, 25 °C, 0.6% DMSO; 1.5 μM compound.

Experiment [11] deals with c-KIT 2 (DNA, G4) CCCGGGCGGGCGCGAGGGAGGGGAGG
Put plainly: fluorescence titration, 1:1 global fit (Bindfit). The following applies: 100 mM KCl; 50 mM Tris pH 7.5, 25 °C, 0.6% DMSO; 1.5 μM compound.

Regarding `C[n+]1cc(NC(=O)c2ccc3ccc4ccc(C(=O)Nc5cc6ccccc6[n+](C)c5)nc4c3n2)cc2ccccc21`, in [1], the binding result is listed as “yes”.

Take `N=C(N)c1cc2ccc(O)cc2oc1=O`: the binding result in [2], in experiment [3] and in experiment [4] was “no” in each case.

On to `CCN(CC)c1ccc2cc(C(=N)N)c(=O)oc2c1`, for which the Kd in [5] amounted to 15.0 µM; in experiment [6], 12.6 µM; in [7], 45.2 µM; in experiment [8], 13.0 µM; in experiment [10], 14.6 µM; in experiment [11] it was 9.1 µM. Moreover, in [9], the binding entry is given as “yes”.

As for `N=C(N)c1cc2cc3c4c(c2oc1=O)CCCN4CCC3`, the Kd in experiment [5] was found to be 0.3 µM; in [7], 3.8 µM; in experiment [8], 0.3 µM; in experiment [10], 0.5 µM; in experiment [11] it was 0.7 µM.
